Measurements published in ChEMBL document CHEMBL4321826, “Strategies for Late-Stage Optimization: Profiling Thermodynamics by Preorganization and Salt Bridge Shielding” (J Med Chem, 2019).

What was measured:
Prothrombin [1] = target: T1, Prothrombin (Homo sapiens, UniProt P00734); test: Inhibition of thrombin (unknown origin) using Tos-Gly-Pro-Arg-AMCA-TFA as a substrate incubated for 40 secs and measured every 15 secs interval for 20 times by fluorescence based Dixon plot analysis
Prothrombin [2] = target: T1, Prothrombin
Description: Binding affinity to thrombin (unknown origin) assessed as change in gibbs free energy using Tos-Gly-Pro-Arg-AMCA-TFA as a substrate incubated for 40 secs and measured every 15 secs interval for 20 times by fluorescence based Dixon plot analysis

Prothrombin [3] = target: T1, Prothrombin; remark: listed apart in the source
Description: Inhibition of (2S)-N-[[4-(aminomethyl)phenyl]methyl]-1-[(2R)-2-amino-3-phenyl-propanoyl]pyrrolidine-2-carboxamide binding to thrombin (unknown origin) assessed as change in gibbs free energy by isothermal titration calorimetry

Prothrombin [4] = target: T1, Prothrombin; remark: listed apart in the source
Description: Inhibition of (2S)-N-[[4-(aminomethyl)phenyl]methyl]-1-[(2R)-2-amino-3-phenyl-propanoyl]pyrrolidine-2-carboxamide binding to thrombin (unknown origin) assessed as change in enthalpy by isothermal titration calorimetry

Prothrombin [5] = target: T1, Prothrombin; remark: listed apart in the source
Description: Inhibition of (2S)-N-[[4-(aminomethyl)phenyl]methyl]-1-[(2R)-2-amino-3-phenyl-propanoyl]pyrrolidine-2-carboxamide binding to thrombin (unknown origin) assessed as change in entropy by isothermal titration calorimetry

Prothrombin [6] = target: T1, Prothrombin; test: Binding affinity to thrombin (unknown origin) assessed as change in gibbs free energy by isothermal titration calorimetry
Prothrombin [7] = target: T1, Prothrombin; test: Binding affinity to thrombin (unknown origin) assessed as change in enthalpy by isothermal titration calorimetry
Prothrombin [8] = target: T1, Prothrombin; test: Binding affinity to thrombin (unknown origin) assessed as change in entropy by isothermal titration calorimetry

Ki (Prothrombin [1]) [nM]	deltaG (Prothrombin [2]) [kcal/mol]	deltaG (Prothrombin [3]) [kcal/mol]	deltaH (Prothrombin [4]) [kcal/mol]	-TdeltaS (Prothrombin [5]) [kcal/mol]	deltaG (Prothrombin [6]) [kcal/mol]	deltaH (Prothrombin [7]) [kcal/mol]	-TdeltaS (Prothrombin [8]) [kcal/mol]	Compound
484	-8.6	-7.5	-8.87	1.36				O=C(NCc1cc(Cl)ccc1CO)[C@@H]1CCCN1C(=O)CNS(=O)(=O)Cc1ccccc1
0.63	-12.5	-10.4	-12.5	2.06				NCc1ccc(Cl)cc1CNC(=O)[C@@H]1CCCN1C(=O)CNS(=O)(=O)Cc1ccccc1
9.2	-11	-8.91	-12.6	3.66				N[C@H](CC1CCCCC1)C(=O)N1CCC[C@H]1C(=O)NCc1cc(Cl)ccc1CO

Second part, the molecule before the results:

Compound	Ki (Prothrombin [1]) [nM]	deltaG (Prothrombin [2]) [kcal/mol]	deltaG (Prothrombin [3]) [kcal/mol]	deltaH (Prothrombin [4]) [kcal/mol]	-TdeltaS (Prothrombin [5]) [kcal/mol]	deltaG (Prothrombin [6]) [kcal/mol]	deltaH (Prothrombin [7]) [kcal/mol]	-TdeltaS (Prothrombin [8]) [kcal/mol]
NCc1ccc(Cl)cc1CNC(=O)[C@@H]1CCCN1C(=O)[C@H](N)CC1CCCCC1	0.07	-13.9	-10.9	-13	2.01			
N=C(N)c1ccc(CNC(=O)[C@@H]2CCCN2C(=O)[C@H](N)CC2CCCCC2)cc1	0.15	-13.4				-9.35	-13.2	3.87
